“Also recorded” adds a separate entry of the source. Where no end group is shown, it is not given here.
What was measured:
Assay type in all cases: cell-based
human Ntera nerve cells = experiment: NTera nerve fiber growth assay (assay method 2); conditions: for inhibition of nerve fiber growth of human NTera cells: peptide concentration 30 μg/ml (higher concentration); for activity of RGM A peptides in NTera growth assay: FIG. 6A and 6B; for activity in NTera nerve fiber growth assay: peptide concentration 10 μg/ml (FIG. 6B)
Method: The human pluripotent carcinoma cell line Ntera (DSMZ ACC527) is an established cell culture model. In this case, axons grow out of cell aggregates and form a corona of axons around the respective aggregate.
For this purpose, 2.5×10^6 Ntera cells were seeded in a 175 cm^2 bottle and differentiated in 10 μM retinoic acid (Sigma) (medium: D-MEM (Gibco/Invitrogen 31966-021), 10% fetal calf serum, 100 u/ml penicillin, 100 μg/ml streptomycin (both Gibco/Invitrogen)) for 3 weeks. Differentiated cells were then divided 1:6 in new bottles and cultured without retinoic acid for a further 2 days. Neuronal cells adhering to the resulting cell lawn were detached by capping and aggregated by slow shaking in Neurobasal medium (Neurobasal Medium (Gibco/Invitrogen 21103-049), 2 mM L-glutamine (Gibco/Invitrogen 25030-024), 100 u/ml penicillin, 100 μg/ml streptomycin (both Gibco/Invitrogen) in a shaken flask overnight (in an incubator).
The next day, Ntera aggregates were seeded in poly-D-lysine and laminin (Sigma) (10 μg/ml) 96-well plates (Biocoat Poly-D-Lysine Cellware 96-Well Black/Clear Plate (Becton Dickinson #35 6640). The inhibitory effect of RGM peptides and fragments was analyzed by adding various concentrations of the substances to be tested.

[1] = tested on: Neogenin-expressing HEK293 cells; experiment: Fragment analysis with neogenin-expressing HEK293 cells (semiquantitative dot-blot of producing clones); conditions: stably transfected HEK293 clones
From the text: It was previously known that the active, growth-inhibiting activity of the RGM A protein from chickens is located in the region between amino acid position 150 and 350.
Fragments of the human RGM A protein which cover this range were therefore prepared. HEK293 cells which carry the RGM receptor endogenously on their surface were then transfected with these fragments in order to prepare clonal cell cultures which produce the individual protein fragments and release them into the culture medium. All the fragments were produced as fusion proteins with attached alkaline phosphatase enzyme. The presence of the active domain in these cells should make itself noticeable by: less cellular proliferation, increased cell death and/or altered cell-substrate adhesion.
Increased cell death and less proliferation have, of course, a direct effect on the produced amount of the active fragment. The amount of the produced fragments was assessed with the aid of a semiquantitative dot-blot assay.
The RGM A fragments prepared as in preparation example 1 were introduced into HEK293 cells. […]
In addition, the ratio of strongly to non-producing clones was determined.

rat cortical neurons = experiment: Neuronal outgrowth test with rat cortical neurons (assay method 1)
Method: The effect of RGM peptides in vitro was investigated by carrying out neuronal outgrowth tests. For this purpose, rat cortical neurons were prepared using the following media:
Cortical neurons were obtained by sacrificing pregnant rats by cervical dislocation, opening the abdominal cavity thereof, removing the uterus with the embryos (embryonic day 18 (E18)) and washing in PBS. Microdissection scissors were used to cut open the uterus longitudinally, and the embryos were removed and exposed. The embryos were sacrificed by throat-cutting, the brain was removed and the forebrain cortex was dissected. […] The cells were counted in a Neubauer counting chamber, and the number of cells was adjusted to about 400 000 cells/0.2 ml in MM and preaggregated. […] 24-48 h later, the axonal outgrowths were initially assessed by examination under a light microscope, and the cultures were then fixed by adding 100 μl of 4% paraformaldehyde solution and stored at 4° C. for at least 12 hours. […] The fluorescence-labeled secondary antibody (Jackson ImmunoResearch, Cy3 conjugated Affinity Pure Donkey Anti Mouse #715-165-151) was diluted 1:500 in 1% bovine serum albumin solution in PBS, which additionally comprised 0.5 μg/ml bisbenzimide (H33258) to visualize the cell nuclei, and 50 μl of this dilution were incubated per well at room temperature for 1-2 h or at 4° C. overnight. […]

Substance | inhibition of nerve fiber growth of human NTera cells (human Ntera nerve cells) | activity of RGM A peptides in NTera growth assay (human Ntera nerve cells; overall result) | activity in NTera nerve fiber growth assay (human Ntera nerve cells) | also measured
Fragment 5: human RGM A fragment amino acids 369-422, expressed in HEK293 as AP fusion protein (PVEDLYYQACVFDLLTTGDVNFTLAAYYALEDVKMLHSNKDKLHLYERTRDLPG; also: alkaline phosphatase fusion; UniProt Q96B86 369-422, looked up, fragment) |  |  |  | activity (inhibitory for axon growth) of RGM A fragments in NTera outgrowth assay (human Ntera nerve cells; stated concentrations (FIG. 5B), overall result): inactive; Proportion of strongly producing cell clones [1]: 16%; Ratio "S producer" versus "0 producer" ([1]; low value = active fragment): 0.63
Peptide 4: synthetic RGM A peptide AA 378-400 of SEQ ID NO: 2 (CVFDLLTTGDVNFTLAAYYALED; listed as Homo sapiens) | not |  |  | activity on nerve fiber growth of cortical neurons (axon growth index) (rat cortical neurons; concentrations 0 to 30 μg/ml (FIG. 3C)): no activity; influence on nerve fiber growth of rat neuronal cells (rat cortical neurons; peptide concentration 10 μg/ml, fluorescence micrographs (FIG. 3A)): inactive
Peptide 5-Ak: RGM A peptide 242-259, AFVDGSKNGGDKHGANSL (SEQ ID NO: 30) |  | Inactive or only weakly active | inactive | 
Peptide 6-Ak: RGM A peptide 300-316, VVNAVEDWDSQGLYLC (SEQ ID NO: 28) | distinct trend in the direction of inhibition of nerve fiber growth; also recorded: tendency to inhibit growth | Inactive or only weakly active | inactive | 
Peptide 7-Ak: RGM A peptide 217-234, TIIFKNFQECVDQKVYQA (SEQ ID NO: 29) | distinct trend in the direction of inhibition of nerve fiber growth; also recorded: tendency to inhibit growth | Inactive or only weakly active | inactive | 
Peptide Down-1: RGM A peptide 260-275, KITEKVSGQHVEIQAK (SEQ ID NO: 26) | inhibited nerve fiber growth highly significantly | large reduction in nerve fiber growth |  | 
Peptide Up-1: RGM A peptide 276-291, YIGTTIVVRQVGRYLT (SEQ ID NO: 27) | inhibited nerve fiber growth highly significantly | large reduction in nerve fiber growth |  | 
